Assay results: BindingDB's records for doi:10.7270/Q21G0K51 (University of Carthage, 2017)

Experiments:
[1] = target: Acetylcholinesterase (Electrophorus electricus, UniProt O42275); test: Cholinesterase Activity Assay
Protocol: (§1) The eight synthesized dialkyl-3-cyanopropylphosphates (3a-h) were dissolved in0.01 M dimethyl sulphoxide and then diluted in demineralized water to 1 mM and 0.1 mM.

[2] = target: Carboxylic ester hydrolase (Equus caballus, UniProt Q9N1N9); test: Cholinesterase Activity Assay
Chain of Carboxylic ester hydrolase (Q9N1N9 whole entry): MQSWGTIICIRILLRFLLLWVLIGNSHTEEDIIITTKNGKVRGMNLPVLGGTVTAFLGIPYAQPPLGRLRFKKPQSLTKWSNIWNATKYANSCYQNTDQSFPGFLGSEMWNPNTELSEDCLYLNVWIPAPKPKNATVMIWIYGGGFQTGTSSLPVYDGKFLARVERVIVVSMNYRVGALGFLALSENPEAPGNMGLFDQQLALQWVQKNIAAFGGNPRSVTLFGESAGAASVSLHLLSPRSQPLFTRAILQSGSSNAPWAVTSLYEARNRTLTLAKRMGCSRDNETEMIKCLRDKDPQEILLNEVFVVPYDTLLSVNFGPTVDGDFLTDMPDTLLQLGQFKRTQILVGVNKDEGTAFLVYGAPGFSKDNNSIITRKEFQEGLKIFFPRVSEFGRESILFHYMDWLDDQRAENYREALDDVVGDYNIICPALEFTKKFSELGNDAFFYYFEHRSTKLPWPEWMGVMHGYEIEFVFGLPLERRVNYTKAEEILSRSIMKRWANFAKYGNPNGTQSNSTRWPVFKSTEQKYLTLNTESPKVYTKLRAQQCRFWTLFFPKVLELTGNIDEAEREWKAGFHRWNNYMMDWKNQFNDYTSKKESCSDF
Protocol: as §1

Chain of Acetylcholinesterase (O42275 whole entry): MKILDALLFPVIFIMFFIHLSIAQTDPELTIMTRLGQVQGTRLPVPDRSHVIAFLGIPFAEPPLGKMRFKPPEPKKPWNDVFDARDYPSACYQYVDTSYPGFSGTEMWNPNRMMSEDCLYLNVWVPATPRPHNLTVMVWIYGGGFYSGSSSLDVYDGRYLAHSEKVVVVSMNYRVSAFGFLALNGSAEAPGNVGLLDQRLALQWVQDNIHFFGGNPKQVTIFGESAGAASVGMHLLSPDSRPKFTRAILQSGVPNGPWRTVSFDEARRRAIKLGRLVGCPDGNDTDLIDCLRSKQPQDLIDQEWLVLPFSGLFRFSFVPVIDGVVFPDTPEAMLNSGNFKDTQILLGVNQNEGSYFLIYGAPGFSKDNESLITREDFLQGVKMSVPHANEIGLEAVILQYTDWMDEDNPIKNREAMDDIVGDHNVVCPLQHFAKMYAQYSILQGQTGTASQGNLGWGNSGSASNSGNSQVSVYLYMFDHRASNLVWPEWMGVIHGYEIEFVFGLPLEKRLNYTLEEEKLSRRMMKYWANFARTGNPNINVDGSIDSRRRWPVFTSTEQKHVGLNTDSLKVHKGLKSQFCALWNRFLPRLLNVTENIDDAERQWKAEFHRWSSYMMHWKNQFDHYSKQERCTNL

Row | Compound | IC50 [1] [µM] | IC50 [2] [µM]
1 | COc1ccc(C(CCC#N)OP(=O)(OC)OC)cc1 (stereo unspecified) [Dimethyl-3-cyano-1-(4-methoxyphenyl)propylphosphate (3f)] | 36.8 | 23.3
2 | COP(=O)(OC)OC(CCC#N)c1ccc(C)cc1 (stereo unspecified) [Dimethyl-3-cyano-1-p-tolylpropylphosphate (3d)] | 17.3 | 16
3 | CCOP(=O)(OCC)OC(CCC#N)c1ccccc1 (stereo unspecified) [Diethyl-3-cyano-1-phenylpropylphosphate (3a)] | 33.6 | 18.1
4 | CCOP(=O)(OCC)OC(c1ccccc1)C(C)CC#N (stereo unspecified) [Diethyl-3-cyano-2-methyl-1-phenylpropylphosphate (3g)] | 35.8 | 17.8
5 | CCOP(=O)(OCC)OC(CCC#N)c1ccc(OC)cc1 (stereo unspecified) [Diethyl-3-cyano-1-(4-methoxyphenyl)propylphosphate (3e)] | 53.7 | 20.7
6 | COP(=O)(OC)OC(c1ccccc1)C(C)CC#N (stereo unspecified) [Dimethyl-3-cyano-2-methyl-1-phenylpropylphosphate (3h)] | 29.5 | 20.6
7 | CCOP(=O)(OCC)OC(CCC#N)c1ccc(C)cc1 (stereo unspecified) [Diethyl-3-cyano-1-p-tolylpropylphosphate (3c)] | 9.61 | 5.96
8 | COP(=O)(OC)OC(CCC#N)c1ccccc1 (stereo unspecified) [Dimethyl-3-cyano-1-phenylpropylphosphate (3b)] | 31.4 | 19.3
